Like-named read-outs stand apart in the source and are kept apart here.
Assay type: physicochemical
Details: for % assay/degs / Total degs / pH: T = 0
Description: For each condition, samples were staged at ambient and refrigerated conditions. Samples were analyzed for % assay/degs, appearance, reconstitution time, pH, and compared to T=0. The structures of the key impurities/metabolites are shown below.

CCC(CC)COC(=O)[C@H](C)N[P@](=O)(OC[C@H]1O[C@@](C#N)(c2ccc3c(N)ncnn23)[C@H](O)[C@@H]1O)Oc1ccccc1 [Formula Ia, (S)-2-ethylbutyl 2-(((S)-(((2R,3S,4R,5R)-5-(4-aminopyrrolo[2,1-f][1,2,4]triazin-7-yl)-5-cyano-3,4-dihydroxytetrahydrofuran-2-yl)methoxy)(phenoxy)phosphoryl)amino)propanoate]
% assay/degs, difference from T = 0 (pH 1.8, 2-8° C., 2 h): 0.0% | Total degs, difference from T = 0 (pH 1.8, 2-8° C., 2 h): 0.0% | pH, difference from T = 0 (pH 1.8, 2-8° C., 2 h): 0.0 | % assay/degs, difference from T = 0 (pH 1.8, 2-8° C., 3 h): −0.2% | Total degs, difference from T = 0 (pH 1.8, 2-8° C., 3 h): 0.0% | pH, difference from T = 0 (pH 1.8, 2-8° C., 3 h): 0.0 | % assay/degs, difference from T = 0 (pH 1.8, 2-8° C., 8 h): −0.2% | Total degs, difference from T = 0 (pH 1.8, 2-8° C., 8 h): 0.1% | pH, difference from T = 0 (pH 1.8, 2-8° C., 8 h): 0.0 | % assay/degs, difference from T = 0 (pH 1.8, 2-8° C., 24 h): −0.5% | Total degs, difference from T = 0 (pH 1.8, 2-8° C., 24 h): 0.2% | pH, difference from T = 0 (pH 1.8, 2-8° C., 24 h): 0.0 | % assay/degs, difference from T = 0 (pH 1.8, 2-8° C., 48 h): −0.2% | Total degs, difference from T = 0 (pH 1.8, 2-8° C., 48 h): 0.4% | pH, difference from T = 0 (pH 1.8, 2-8° C., 48 h): 0.0 | % assay/degs, difference from T = 0 (pH 1.8, Ambient, 1 h): −0.3% | Total degs, difference from T = 0 (pH 1.8, Ambient, 1 h): 0.0% | pH, difference from T = 0 (pH 1.8, Ambient, 1 h): 0.0 | % assay/degs, difference from T = 0 (pH 1.8, Ambient, 2 h): −0.1% | Total degs, difference from T = 0 (pH 1.8, Ambient, 2 h): 0.1% | pH, difference from T = 0 (pH 1.8, Ambient, 2 h): 0.0 | % assay/degs, difference from T = 0 (pH 1.8, Ambient, 3 h): −0.3% | Total degs, difference from T = 0 (pH 1.8, Ambient, 3 h): 0.1% | pH, difference from T = 0 (pH 1.8, Ambient, 3 h): 0.0 | % assay/degs, difference from T = 0 (pH 1.8, Ambient, 8 h): −0.4% | Total degs, difference from T = 0 (pH 1.8, Ambient, 8 h): 0.4% | pH, difference from T = 0 (pH 1.8, Ambient, 8 h): 0.0 | % assay/degs, difference from T = 0 (pH 1.8, Ambient, 24 h): −1.3% | Total degs, difference from T = 0 (pH 1.8, Ambient, 24 h): 1.2% | pH, difference from T = 0 (pH 1.8, Ambient, 24 h): 0.0 | % assay/degs, difference from T = 0 (pH 1.8, Ambient, 48 h): −3.5% | Total degs, difference from T = 0 (pH 1.8, Ambient, 48 h): 2.4% | pH, difference from T = 0 (pH 1.8, Ambient, 48 h): 0.0 | % assay/degs (pH 1.8): 99.4% | Total degs (pH 1.8): 0.2% | pH (pH 1.8): 1.8 | % assay/degs, difference from T = 0 (pH 2.0, 2-8° C., 2 h): 0.6% | Total degs, difference from T = 0 (pH 2.0, 2-8° C., 2 h): 0.0% | pH, difference from T = 0 (pH 2.0, 2-8° C., 2 h): 0.0 | % assay/degs, difference from T = 0 (pH 2.0, 2-8° C., 3 h): 0.2% | Total degs, difference from T = 0 (pH 2.0, 2-8° C., 3 h): 0.0% | pH, difference from T = 0 (pH 2.0, 2-8° C., 3 h): 0.0 | % assay/degs, difference from T = 0 (pH 2.0, 2-8° C., 8 h): −0.1% | Total degs, difference from T = 0 (pH 2.0, 2-8° C., 8 h): 0.1% | pH, difference from T = 0 (pH 2.0, 2-8° C., 8 h): 0.0 | % assay/degs, difference from T = 0 (pH 2.0, 2-8° C., 24 h): 0.2% | Total degs, difference from T = 0 (pH 2.0, 2-8° C., 24 h): 0.1% | pH, difference from T = 0 (pH 2.0, 2-8° C., 24 h): 0.0 | % assay/degs, difference from T = 0 (pH 2.0, 2-8° C., 48 h): −0.5% | Total degs, difference from T = 0 (pH 2.0, 2-8° C., 48 h): 0.3% | pH, difference from T = 0 (pH 2.0, 2-8° C., 48 h): 0.0 | % assay/degs, difference from T = 0 (pH 2.0, Ambient, 1 h): 0.1% | Total degs, difference from T = 0 (pH 2.0, Ambient, 1 h): 0.0% | pH, difference from T = 0 (pH 2.0, Ambient, 1 h): 0.0 | % assay/degs, difference from T = 0 (pH 2.0, Ambient, 2 h): −0.2% | Total degs, difference from T = 0 (pH 2.0, Ambient, 2 h): 0.1% | pH, difference from T = 0 (pH 2.0, Ambient, 2 h): 0.0 | % assay/degs, difference from T = 0 (pH 2.0, Ambient, 3 h): 0.3% | Total degs, difference from T = 0 (pH 2.0, Ambient, 3 h): 0.1% | pH, difference from T = 0 (pH 2.0, Ambient, 3 h): 0.0 | % assay/degs, difference from T = 0 (pH 2.0, Ambient, 8 h): −0.2% | Total degs, difference from T = 0 (pH 2.0, Ambient, 8 h): 0.2% | pH, difference from T = 0 (pH 2.0, Ambient, 8 h): 0.0 | % assay/degs, difference from T = 0 (pH 2.0, Ambient, 24 h): −0.6% | Total degs, difference from T = 0 (pH 2.0, Ambient, 24 h): 0.8% | pH, difference from T = 0 (pH 2.0, Ambient, 24 h): 0.0 | % assay/degs, difference from T = 0 (pH 2.0, Ambient, 48 h): −1.8% | Total degs, difference from T = 0 (pH 2.0, Ambient, 48 h): 1.6% | pH, difference from T = 0 (pH 2.0, Ambient, 48 h): 0.0 | % assay/degs (pH 2.0): 99.2% | Total degs (pH 2.0): 0.2% | pH (pH 2.0): 2.0 | % assay/degs, difference from T = 0 (pH 3.5, 2-8° C., 2 h): 0.6% | Total degs, difference from T = 0 (pH 3.5, 2-8° C., 2 h): 0.0% | pH, difference from T = 0 (pH 3.5, 2-8° C., 2 h): 0.0 | % assay/degs, difference from T = 0 (pH 3.5, 2-8° C., 8 h): 0.3% | Total degs, difference from T = 0 (pH 3.5, 2-8° C., 8 h): 0.0% | pH, difference from T = 0 (pH 3.5, 2-8° C., 8 h): 0.0 | % assay/degs, difference from T = 0 (pH 3.5, 2-8° C., 24 h): 0.7% | Total degs, difference from T = 0 (pH 3.5, 2-8° C., 24 h): 0.0% | pH, difference from T = 0 (pH 3.5, 2-8° C., 24 h): −0.1 | % assay/degs, difference from T = 0 (pH 3.5, 2-8° C., 48 h): 0.5% | Total degs, difference from T = 0 (pH 3.5, 2-8° C., 48 h): 0.0% | pH, difference from T = 0 (pH 3.5, 2-8° C., 48 h): 0.0 | % assay/degs, difference from T = 0 (pH 3.5, 2-8° C., 72 h): 0.7% | Total degs, difference from T = 0 (pH 3.5, 2-8° C., 72 h): 0.0% | pH, difference from T = 0 (pH 3.5, 2-8° C., 72 h): −0.1 | % assay/degs, difference from T = 0 (pH 3.5, 2-8° C., 96 h): 0.2% | Total degs, difference from T = 0 (pH 3.5, 2-8° C., 96 h): 0.0% | pH, difference from T = 0 (pH 3.5, 2-8° C., 96 h): 0.0 | % assay/degs, difference from T = 0 (pH 3.5, 2-8° C., 168 h): 0.6% | Total degs, difference from T = 0 (pH 3.5, 2-8° C., 168 h): 0.0% | pH, difference from T = 0 (pH 3.5, 2-8° C., 168 h): 0.0 | % assay/degs, difference from T = 0 (pH 3.5, Ambient, 2 h): 0.6% | Total degs, difference from T = 0 (pH 3.5, Ambient, 2 h): 0.0%
